Source: the supplement of paper PMC8671470
± gives the standard deviation of the averaged measurements.

Tests used:
Details in all cases: 72 h
[1] = test system: NOMO-1
In short: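 Fifteen myeloid leukaemia cell lines were seeded in RPMI 1640 at densities titrated to the linear growth range and placed in 384-well plates with acoustically pre-printed compounds at five tenfold doses from 1 to 10,000 nM, in duplicate. After 72 h at 37 °C with 5% CO2, luminescent ATP viability was normalised to vehicle and to a positive control at 10 µM, and curves were fitted with a four-parameter log-logistic model. The IC50 was obtained from these fits.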

[2] = test system: HL-60; assay: area under dose-response curve (viability, 1 nM-10 uM) (fraction (0-1)); higher = more sensitive
In short: (§1)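 HL-60 cells grown in RPMI 1640 with 10% FBS were rescreened against the full library in 384-well plates, in duplicate, at five tenfold concentrations from 1 to 10,000 nM, alongside DMSO or 100 nM of one of three metabolic inhibitors for 72 h at 37 °C, 5% CO2. Reference wells contained DMSO or 10 μM proteasome inhibitor. Viability was read with CellTiter-Glo and normalised to these reference wells, and where reported, area under the curve was taken from four-parameter log-logistic fits in drc and PharmacoGx.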

[3] = test system: KG-1; assay: cell viability (% survival relative to DMSO control, bortezomib = 0%); higher = less cytotoxic
In short: (§2)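 In 384-well plates pre-printed with compounds at 1, 10, 100, 1000 or 10000 nM, duplicate wells received cells from 10 AML and 5 CML lines at densities within the linear growth range. The plates stayed at 37 °C with 5% CO2 for 72 h before CellTiter-Glo luminescence was recorded. Each entry is averaged percent survival. Scaling placed vehicle at 100% and a 10 µM positive control at 0%.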

[4] = test system: MOLM-13; assay: as above
In short: as §2

[5] = test system: LAMA-84; assay: as above
In short: as §2

[6] = test system: K-562; assay: as above
In short: as §2

[7] = test system: THP-1; assay: as above
In short: as §2

[8] = test system: ML-2; assay: as above
In short: as §2

[9] = test system: MV4-11; assay: as above
In short: as §2

[10] = test system: BV-173; assay: as above
In short: as §2

[11] = test system: HL-60; assay: as above
In short: as §2

[12] = test system: SHI-1; assay: as above
In short: as §2

[13] = test system: HEL; assay: as above
In short: as §2

[14] = test system: KCL-22; assay: as above
In short: as §2

[15] = test system: NOMO-1; assay: as above
In short: as §2

[16] = test system: Mono-Mac-6; assay: as above
In short: as §2

[17] = test system: KU-812; assay: as above
In short: as §2

[18] = test system: HL-60; assay: cell viability (% survival relative to DMSO control); higher = less cytotoxic
In short: as §1

C=C1NC(=O)c2cc(CN(C)c3ccc(C(=O)N[C@@H](CCC(=O)O)C(=O)O)s3)ccc2N1 [Raltitrexed]
Details | IC50 (cell viability) [nM]
[1] | 82.9

Details | area under dose-response curve, co-treatment: AZD3965 100 nM | area under dose-response curve, co-treatment: DMSO vehicle | area under dose-response curve, co-treatment: GSK2194069 100 nM | area under dose-response curve, co-treatment: pictilisib 100 nM | cell viability, 1 nM [%] | cell viability, 10 nM [%] | cell viability, 100 nM [%] | cell viability, 1000 nM [%] | cell viability, 10000 nM [%]
[2] | 0.598 | 0.412 | 0.42 | 0.432 | – | – | – | – | –
[3] | – | – | – | – | 101 | 103 | 101 | 100 | 102
[4] | – | – | – | – | 118 | 145 | 5.74 | 1.25 | 1.81
[5] | – | – | – | – | 97.1 | 108 | 27.7 | 22.4 | 26.6
[6] | – | – | – | – | 104 | 121 | 86.5 | 49.2 | 52.4
[7] | – | – | – | – | 92.9 | 118 | 61.4 | 40.7 | 46.1
[8] | – | – | – | – | 93.9 | 121 | 61.6 | 5.21 | 6.92
[9] | – | – | – | – | 108 | 110 | 48.1 | 4.34 | 6.68
[10] | – | – | – | – | 95.6 | 163 | 8.17 | 1.32 | 3.9
[11] | – | – | – | – | 108 | 127 | 116 | 6.78 | 6.89
[12] | – | – | – | – | 106 | 118 | 99.8 | 38.4 | 43.3
[13] | – | – | – | – | 100 | 109 | 6.54 | 6.59 | 7.77
[14] | – | – | – | – | 103 | 107 | 45.4 | 21.2 | 22
[15] | – | – | – | – | 99.5 | 113 | 51.3 | 34.8 | 31.4
[16] | – | – | – | – | 94.2 | 108 | 19.4 | 8.75 | 9.59
[17] | – | – | – | – | 94.1 | 104 | 37.7 | 34.6 | 39.1

cell viability [%], [18]
Details | 0.001 µM | 0.01 µM | 0.1 µM | 1 µM | 10 µM
co-treatment: AZD3965 100 nM | 99.38 ± 0.65 | 74.1 ± 32 | 76.3 ± 41 | 25.7 ± 1.2 | 24.2 ± 2.7
co-treatment: DMSO vehicle | 101 ± 4.5 | 88.5 ± 22 | 55.7 ± 5.9 | 31.6 ± 6.8 | 27.6 ± 0.44
co-treatment: GSK2194069 100 nM | 98.5 ± 9.8 | 79.7 ± 24 | 53.7 ± 6.4 | 30.6 ± 6.8 | 23.3 ± 6
co-treatment: pictilisib 100 nM | 101 ± 4.3 | 78.4 ± 35 | 51.8 ± 1.8 | 34.2 ± 6.4 | 26.11 ± 0.13
